Test results: patent US7943624B2, “Pyridinylpyrazolopyrimidinone derivatives as PDE 7 inhibitors” (Asubio Pharma Co. Ltd., priority 2003, dated 2011)
Several values for one entry are separate records, joined by “and”; a condition that tells them apart may be missing. Identical values can stand only once.

These compounds were tested against T1, PDE 7 (phosphodiesterase VII) (Homo sapiens, UniProt Q13946) (assay: PDE 7 inhibiting effect (Biological Test 1; 3H-cAMP hydrolysis by PDE 7 fraction from MOLT-4 cells)). Settings: PDE 7 active fraction from MOLT-4 cells; 0.064 μM cAMP, 10 μM rolipram, 2 hours at 25° C.
T1 construct: filtrated with 0.2 μm filter to obtain the soluble fraction; endogenous in cells; host or cells: MOLT-4 (ATCC CRL-1582); soluble fraction, HiTrap Q eluate at about 350 mM NaCl
T1 sequence (Q13946 whole entry): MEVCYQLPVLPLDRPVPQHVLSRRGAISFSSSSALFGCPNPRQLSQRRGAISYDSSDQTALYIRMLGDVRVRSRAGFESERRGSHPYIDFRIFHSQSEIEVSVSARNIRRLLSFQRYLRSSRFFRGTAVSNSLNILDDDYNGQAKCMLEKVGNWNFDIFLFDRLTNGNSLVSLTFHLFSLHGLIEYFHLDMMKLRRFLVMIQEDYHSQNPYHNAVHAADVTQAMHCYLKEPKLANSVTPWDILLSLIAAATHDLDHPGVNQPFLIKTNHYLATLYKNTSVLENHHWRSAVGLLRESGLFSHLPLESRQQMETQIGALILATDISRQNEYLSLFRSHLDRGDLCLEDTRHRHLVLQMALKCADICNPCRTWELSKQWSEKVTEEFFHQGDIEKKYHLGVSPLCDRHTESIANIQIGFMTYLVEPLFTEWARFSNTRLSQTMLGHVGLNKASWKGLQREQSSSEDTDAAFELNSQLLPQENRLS
Type: biochemical
Procedure: The PDE 7 (phosphodiesterase VII) inhibiting effect of the compounds of the present invention was performed by the following method, which was modified assay method described in Biochemical. Pharmacol. 48(6), 1219-1223 (1994).
(1) The active fraction of PDE 7 (phosphodiesterase VII) was obtained. That is, MOLT-4 (obtainable from ATCC as ATCC No. CRL-1582), which was cell line of human acute lymphoblastic lymphoma T cells, was incubated in RPMI1640 culture medium containing 10% fetal bovine serum to obtain 5×10^8 MOLT-4 cells. The cells were collected by centrifugation and suspended with 10 mL of buffer solution A 125 mM of tris-HCl, 5 mM of 2-mercaptoethnol, 2 mM of benzamidine, 2 mM of EDTA, 0.1 μM of 4-(2-aminoethyl)benzensulfonyl hydrochloride; pH 7.5], then homogenized by Polytron® homogenizer. The homogenate were centrifuged under 25,000×G for 10 minutes at 4° C. The supernatant was separated and thus obtained supernatant was further centrifuged under 100,000×G for 60 minutes at 4° C., and then filtrated with 0.2 μm filter to obtain the soluble fraction.
(2) The obtained soluble fraction was filled in equilibrium HiTrap Q column (5 mL×2) with buffer solution A, and phosphodiesterase fractions were eluted by 300 mL of buffer solution A with linear gradient from 0 to 0.8 M NaCl concentration. 5 ml each of 60 eluents were collected, and each eluents were examined for cyclic AMP metabolic activities of phosphodiesterase. The fraction eluting with about 350 mM NaCl concentration parts, where metabolic activities were not inactivated by 10 μM of rolipram (selective inhibitor for phosphodiesterase IV) and 10 μM of milrinone (selective inhibitor for phosphodiesterase III), were collected as storage solution for using to test PDE 7 inhibiting effect.
(3) The tested compound having desired concentration was reacted in the solution of 20 mM tris-HCl (pH 7.5), 1 mM of MgCl2, 100 μM of EDTA, 330 μg/mL of bovine serum albumin, 4 μg/mL of 5′-nucleotidase, 0.1 μCi of ^3H-cAMP (0.064 μM of cAMP), 10 μM of rolipram in storage solution of PDE 7 for 2 hours at 25° C. After the reaction, suspension of Sephadex®-QAE in 10 mM of HEPES-Na (pH 7.0) was added to the reaction mixture, and the mixture was left at rest for 5 minutes. Further, Sephadex®-QAE was added to the obtained supernatant and the mixture was leaved at rest for 5 minutes, then, the radioactivity of the solution was measured.
(4) IC50 was calculated as 50% inhibiting concentration of the metabolic activities of phosphodiesterase VII of the tested compound.
In the case of `COc1nc(S(=O)(=O)N2CCCN(C)CC2)ccc1-c1nc2c(c(C3CCCCC3)nn2C)c(=O)[nH]1` [Compound 36, 3-Cyclohexyl-6-{2-methoxy-6-[(4-methyl-1,4-diazepan-1-yl)sulfonyl]-3-pyridinyl}-1-methyl-1,5-dihydro-4H-pyrazolo[3,4-d]pyrimidin-4-one], the IC50 is reported as at most 100 nM.
For `CNC1CCN(c2ccc(-c3nc4c(c(C5CCCCC5)nn4C)c(=O)[nH]3)c(OC)n2)CC1` [Compound 26, 3-Cyclohexyl-6-{2-methoxy-6-[4-(methylamino)-1-piperidinyl]-3-pyridinyl}-1-methyl-1,5-dihydro-4H-pyrazolo[3,4-d]-pyrimidin-4-one], the IC50 was ≤ 100 nM and 2.6 nM.
With `COc1nc(N2CCC(N)CC2)ccc1-c1nc2c(c(C3CCCCC3)nn2C)c(=O)[nH]1` [Compound 28, 6-[6-(4-Amino-1-piperidinyl)-2-methoxy-3-pyridinyl]-3-cyclohexyl-1-methyl-1,5-dihydro-4H-pyrazolo[3,4-d]pyrimidin-4-one] the IC50 was at most 100 nM.
In the case of `COc1nc(N2CCC(NC(C)=O)CC2)ccc1-c1nc2c(c(C3CCCCC3)nn2C)c(=O)[nH]1` [Compound 29, N-{1-[5-(3-Cyclohexyl-1-methyl-4-oxo-4,5-dihydro-1H-pyrazolo[3,4-d]-pyrimidin-6-yl)-6-methoxy-2-piridinyl]-4-piperidinyl}acetamide], the IC50 is reported as at most 100 nM.
With `COc1nc(N2CCCN(C)CC2)ccc1-c1nc2c(C)nn(C3CCCCC3)c2c(=O)[nH]1` [Compound 18, 1-Cyclohexyl-5-[2-methoxy-6-(4-methyl-1,4-diazepan-1-yl)-3-pyridinyl]-3-meth-1-1,6-dihydro-7H-pyrazolo[4,3-d]pyrimidin-7-one] the IC50 was at most 100 nM.
Work on `CCOc1nc(N2CCC(O)CC2)ccc1-c1nc2c(C)nn(C3CCCCC3)c2c(=O)[nH]1` [Compound 49, 1-Cyclohexyl-5-[2-ethoxy-6-(4-hydroxy-1-piperidinyl)-3-pyridinyl]-3-methyl-1,6-dihydro-7H-pyrazolo[4,3-d]pyrimidin-7-one] yielded an IC50 of at most 100 nM.
`COc1nc(N2CCN(C)CC2)ccc1-c1nc2c(C)nn(C3CCCCC3)c2c(=O)[nH]1` [Compound 16, 1-Cyclohexyl-5-[2-methoxy-6-(4-methyl-1-piperazinyl)-3-pyridinyl]-3-methyl-1,6-dihydro-7H-pyrazolo[4,3-d]pyrimidin-7-one] showed an IC50 of at most 100 nM.
In the case of `COc1nc(N2CCOCC2)ccc1-c1nc2c(c(C3CCCCC3)nn2C)c(=O)[nH]1` [Compound 21, 3-Cyclohexyl-6-[2-methoxy-6-(4-morpholinyl)-3-pyridinyl]-1-methyl-1,5-dihydro-4H-pyrazolo[3,4-d]pyrimidin-4-one], the IC50 is reported as at most 100 nM.
For `CNC1CCN(c2ccc(-c3nc4c(C)nn(C5CCCCC5)c4c(=O)[nH]3)c(OC)n2)CC1` [Compound 32], the IC50 was ≤ 100 nM and 3.2 nM.
In the case of `COc1nc(N2CCC(O)CC2)ccc1-c1nc2c(c(C3CCCCC3)nn2C)c(=O)[nH]1` [Compound 25, 3-Cyclohexyl-6-[6-(4-hydroxy-1-piperidinyl)-2-methoxy-3-pyridinyl]-1-methyl-1,5-dihydro-4H-pyrazolo[3,4-d]pyrimidin-4-one], the IC50 is reported as at most 100 nM.
`COc1nc(N2CCN(C)CC2)ccc1-c1nc2c(c(C3CCCCC3)nn2C)c(=O)[nH]1` [Compound 20, 3-Cyclohexyl-6-[2-methoxy-6-(4-methyl-1-piperazinyl)-3-pyridinyl]-1-methyl-1,5-dihydro-4H-pyrazolo[3,4-d]pyrimidin-4-one] was tested, and the IC50 was at most 100 nM.
For `CCOc1nc(N2CCN(C)CC2)ccc1-c1nc2c(C)nn(C3CCCCC3)c2c(=O)[nH]1` [Compound 43], the IC50 was at most 100 nM.
For `COc1nc(N2CCC(O)CC2)ccc1-c1nc2c(C)nn(C3CCCCC3)c2c(=O)[nH]1` [Compound 37, 1-Cyclohexyl-5-[6-(4-hydroxy-1-piperidinyl)-2-methoxy-3-pyridinyl]-3-methyl-1,6-dihydro-7H-pyrazolo[4,3-d]pyrimidin-7-one], the IC50 was at most 100 nM.
Work on `COc1nc(N2CCCN(C)CC2)ccc1-c1nc2c(c(C3CCCCC3)nn2C)c(=O)[nH]1` [Compound 22, 3-Cyclohexyl-6-[2-methoxy-6-(4-methyl-1,4-diazepan-1-yl)-3-pyridinyl]-1-methyl-1.5-dihydro-4H-pyrazolo[3,4-d]pyrimidin-4-one] yielded an IC50 of at most 100 nM.
Work on `CCOc1nc(N2CCC(NC)CC2)ccc1-c1nc2c(C)nn(C3CCCCC3)c2c(=O)[nH]1` [Compound 48, 1-Cyclohexyl-5-{2-ethoxy-6-[4-(methylamino)-1-piperidinyl]-3-pyridinyl}-3-methyl-1,6-dihydro-7H-pyrazolo[4,3-d]pyrimidin-7-one] yielded an IC50 of at most 100 nM.
Work on `COc1nc(N2CCOCC2)ccc1-c1nc2c(C)nn(C3CCCCC3)c2c(=O)[nH]1` [Compound 17, 1-Cyclohexyl-5-[2-methoxy-6-(4-morpholinyl)-3-pyridinyl]-3-methyl-1,6-dihydro-7H-pyrazolo[4,3-d]pyrimidin-7-one] yielded an IC50 of at most 100 nM.
`COc1nc(N2CCC(N(C)C)CC2)ccc1-c1nc2c(C)nn(C3CCCCC3)c2c(=O)[nH]1` [Compound 33] showed an IC50 of at most 100 nM.
Work on `CCOc1nc(N2CCC(N(C)C)CC2)ccc1-c1nc2c(C)nn(C3CCCCC3)c2c(=O)[nH]1` [Compound 47, 1-Cyclohexyl-5-{6-[4-(dimethylamino)-1-piperidinyl]-2-ethoxy-3-pyridinyl]-3-methyl-1,6-dihydro-7H-pyrazolo[4,3-d]-pyrimidin-7-one] yielded an IC50 of at most 100 nM.
`CCOc1nc(N2CCCN(C)CC2)ccc1-c1nc2c(C)nn(C3CCCCC3)c2c(=O)[nH]1` [Compound 44, 1-Cyclohexyl-5-[2-ethoxy-6-(4-methyl-1,4-diazepan-1-yl)-3-pyridinyl]-3-methyl-1,6-dihydro-7H-pyrazolo[4,3-d]pyrimidin-7-one] was tested, and the IC50 was at most 100 nM.
With `COc1nc(N2CCC(N(C)C)CC2)ccc1-c1nc2c(c(C3CCCCC3)nn2C)c(=O)[nH]1` [Compound 27, 3-Cyclohexyl-6-{6-[4-(dimethylamino)-1-piperidinyl]-2-methoxy-3-pyridinyl}-1-methyl-1.5-dihydro-4H-pyrazolo[3,4-d]-pyrimidin-4-one] the IC50 was at most 100 nM.

What follows are compounds tested against PDE 4 (phosphodiesterase IV) (assay: PDE 4 inhibiting effect (Biological Test 2; 3H-cAMP hydrolysis by PDE 4 fraction from Balb/c mouse liver)). Settings: PDE 4 active fraction from Balb/c mouse liver; 0.064 μM cAMP, 2 hours at 25° C.
Type: biochemical, mice
Procedure: The PDE 4 (phosphodiesterase IV) inhibiting effect of the compounds of the present invention was performed by the following method, which was modified assay method described in Biochemical. Pharmacol. 48(6), 1219-1223 (1994).
(1) The active fraction of PDE 4 (phosphodiesterase IV) was obtained. That is, the livers obtained from three Balb/c mice (male, 12 weeks: obtainable from CLEA Japan, Inc.) were suspended with 30 mL of buffer solution B [20 mM of bis-tris, 5 mM of 2-mercaptoethnol, 2 mM of benzamidine, 2 mM of EDTA, 0.1 mM of 4-(2-aminoethyl)benzensulfonyl hydrochloride, 50 mM of sodium acetate; pH 6.5], then homogenized by Polytron® homogenizer. The homogenate were centrifuged under 25,000×G for 10 minutes at 4° C. The supernatant was separated and thus obtained supernatant was further centrifuged under 100,000×G for 60 minutes at 4° C., and then filtrated with 0.2pm filter to obtain the soluble fraction. […]
(3) The tested compound having desired concentration was reacted in the solution of 20 mM tris-HCl (pH 7.5), […], 100 μM of EDTA, 330 μg/mL of bovine serum albumin, 4 μg/mL of 5′-nucleotidase, 0.1 μCi of ^3H-cAMP (0.064 μM of cAMP), and storage solution of PDE 4 for 2 hours at 25° C. […] Further, Sephadex®-QAE was added to the obtained supernatant and the mixture was left at rest for 5 minutes, then, the radioactivity of the solution was measured. […]
With `CNC1CCN(c2ccc(-c3nc4c(c(C5CCCCC5)nn4C)c(=O)[nH]3)c(OC)n2)CC1` [Compound 26, 3-Cyclohexyl-6-{2-methoxy-6-[4-(methylamino)-1-piperidinyl]-3-pyridinyl}-1-methyl-1,5-dihydro-4H-pyrazolo[3,4-d]-pyrimidin-4-one] the IC50 was 1200 nM.
`CNC1CCN(c2ccc(-c3nc4c(C)nn(C5CCCCC5)c4c(=O)[nH]3)c(OC)n2)CC1` [Compound 32] showed an IC50 of 980 nM.
